# Test results as given in article PMC12264943, “Identification of New Human P2X7 Antagonists Using Ligand- and Structure-Based Virtual Screening” (Journal of Chemical Information and Modeling, 2025).
# “Also recorded” adds a separate entry of the source.
# What was measured:
# Format in all cases: cell-based
# hP2X7 [1] = biological target: T1, hP2X7 (Homo sapiens, UniProt Q99572); experiment: YO-PRO 1 dye uptake assay, HEK-293 cells stably transfected with hP2X7; details: for hP2X7 inhibition in YO-PRO 1 dye uptake, SAR / reduction of hP2X7 activity: analogues at 10 μM; for hP2X7 inhibition in YO-PRO 1 dye uptake, SAR: 1 mM ATP; for reduction of hP2X7 activity: YO-PRO 1, 1 mM ATP, 0.1% DMSO; for IC50: Table 1, table names no assay, values of 2 and 9 are from YO-PRO 1 dye uptake in hP2X7 HEK-293 cells, read-out: IC50
# T1 construct: expressed in transfected cells; host or cells: HEK-293, stably transfected (gift of E. Adinolfi's group, Ferrara University)
# T1 sequence (Q99572 1-595): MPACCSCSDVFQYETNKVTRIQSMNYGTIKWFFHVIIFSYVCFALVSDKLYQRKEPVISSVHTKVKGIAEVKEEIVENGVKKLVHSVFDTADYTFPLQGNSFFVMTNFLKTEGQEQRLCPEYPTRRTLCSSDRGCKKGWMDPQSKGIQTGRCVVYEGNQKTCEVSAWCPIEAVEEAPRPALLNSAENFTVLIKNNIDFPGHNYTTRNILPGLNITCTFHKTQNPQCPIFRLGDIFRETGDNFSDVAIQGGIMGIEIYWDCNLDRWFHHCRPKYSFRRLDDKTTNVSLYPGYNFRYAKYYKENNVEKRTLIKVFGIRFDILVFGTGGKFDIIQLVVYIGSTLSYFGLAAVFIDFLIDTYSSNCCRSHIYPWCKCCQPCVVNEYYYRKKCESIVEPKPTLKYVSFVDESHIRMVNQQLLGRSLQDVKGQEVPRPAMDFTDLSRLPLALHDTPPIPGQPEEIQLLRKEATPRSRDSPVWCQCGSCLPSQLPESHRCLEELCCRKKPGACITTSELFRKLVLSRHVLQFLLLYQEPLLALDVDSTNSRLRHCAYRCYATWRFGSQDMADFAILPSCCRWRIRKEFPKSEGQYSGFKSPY
# Protocol: (§1) Astrocytoma 1321 N1 (established by Dr. Gaia Pasqualetto) and HEK-293 (kindly gifted by E. Adinolfi’s group, Ferrara University) both stably transfected with hP2X7, were used to assess the activity of the small molecules selected from the VS. Cells were maintained in DMEM:F12 (PanBiotech) supplemented with 10% FBS, 1% pen-strep, and 150 μg/mL G418 (PanBiotech).
# (§2) Astrocytoma 1321 N1 cells (2–2.5 × 10^4 cells/well) and HEK-293 cells (4–5 × 10^4 cells/well) expressing hP2X7 were seeded in poly-L-lysine-coated 96-well plates (Sarstedt) 24 h before the experiment. YO-PRO 1 dye was prepared at 5 μM in extracellular solution with low divalent cations (ECS-LD) buffer (147 mM NaCl, 10 mM HEPES, 13 mM glucose, 0.2 mM CaCl2, 2 mM KCl, pH 7.4) and added to cells after washing them with Dulbecco’s phosphate- buffered saline (DPBS) (PanBiotech) and incubated for 20 min at 37 °C. ATP-induced dye uptake, mediated by hP2X7 activation, was monitored using a Clariostar plate reader (excitation: 485 nm; emission: 538 nm) for 30 cycles (75–150 s/cycle), after recording the baseline for five cycles. hP2X7 activation was quantified at cycle 10 by calculating the fluorescence intensity (FI) ratio (Δ(Fcycle 10–F cycle 1)/cycle time).
# Compounds 2 and 9, identified as hits, were further evaluated for concentration-dependent inhibition (IC50) of hP2X7 activation in the YO-PRO 1 dye uptake assay using HEK-293 cells stably transfected with hP2X7 (unfortunately, at this point in the study, the stably transfected 1321N1 cells lost P2X7 expression, and we were unable to recover them from frozen aliquots), for which the ATP EC50 was determined to be approximately 1 mM (Supporting material Figure 4C). Seven concentrations (100 to 0.03 μM) were tested, but due to precipitation at 100 μM, the DMSO concentration was increased to 1%.
# 3 Inhibitory concentration response evaluation of compounds 2 and 9 and their groups highlighted for SAR. […] Compound activity was evaluated along a time of 20 min (75 s per cycle) after ATP addition (700 μM). The fluorescence intensity (FI) values of the first 10 cycles were considered for assessing their ability to inhibit hP2X7. The curves represent three biological replicates (n = 4 per replicate). Data were normalized by setting as 100% the FI recorded by hP2X7 HEK-293 cells incubated in 1% DMSO and stimulated by ATP, and as 0% the FI recorded by the same cells but treated with ECS-LD (assay buffer). (C) Highlighted areas of compound 2 considered for SAR study. R1 refers to the ethyl-benzyl group of the molecules, and R2 and R3 refer to the benzo-(1,3)-dioxol groups. (D) Highlighted areas of compound 9 considered for SAR study. We have defined the area highlighted in yellow and numbered as 1 as the “front” region of the molecule and the one colored in pink and named as 2 as the “back” region of the molecule. L highlights the urea and amide linkers of compounds 2 and 9, respectively.
# (§3) 4 Evaluation of compound 2 and 9 analogue activity using YO-PRO 1 and MPR assays. The activity of compound 2 (A and B) and 9 (C and D) analogues was evaluated in YO-PRO 1 (A and C) and MPR (B and D) assays. The compounds were tested at 10 μM and preincubated for either 20 (YO-PRO 1) or 30 min (MPR). The baseline was recorded for 5 cycles before ATP treatment (1 mM). Fluorescence was recorded for 25 (YO-PRO 1) or 5 min (MPR). The data were normalized by setting as 100% for the fluorescence measured from hP2X7 HEK-293 cells incubated with vehicle (0.1% DMSO) and treated with 1 mM ATP and 0% for the fluorescence recorded by the cells not treated with ATP. The data shown correspond to three independent biological replicates (3 technical replicates per experiment; error bars represent the SEM from the mean values of each biological replicate (n = 3)). The statistical analysis was performed with one-way Anova using Dunnett’s function (P**** < 0.0001; P*** < 0.0003; P** < 0.002; P* < 0.02).
# hP2X7 [2] = biological target: T1, hP2X7; experiment: Membrane Potential Red (MPR) dye assay, HEK-293 cells stably transfected with hP2X7; details: 10 μM, 1 mM ATP, hP2X7 HEK-293
# Protocol: as §1
# (§4) Cells were plated as described for the YO-PRO 1 dye uptake assay. MPR dye (Molecular Devices) was prepared following the manufacturer’s protocol and diluted 1:10 in ECS-LD buffer. After washing with DPBS, cells were incubated with the dye for 30 min at 37 °C. Fluorescence changes (excitation: 525 nm; emission: 560 nm) were recorded using a Clariostar plate reader during ATP-induced membrane depolarization. Baseline fluorescence was recorded for 5 cycles, and ATP was added via an automated injector (10 μL). Membrane depolarization was quantified as the ratio of the maximal fluorescence change over baseline intensity (Δ(F max–F0)/F0)).
# as §3
# hP2X7 [3] = biological target: T1, hP2X7; experiment: Membrane Potential Red (MPR) dye assay, 1321 N1 cells stably transfected with hP2X7; details: compound 10 μM, 700 μM ATP
# hP2X7 [4] = biological target: T1, hP2X7; experiment: as above; details: P2X7; compound 10 μM, 700 μM ATP
# Protocol: as §1, §4
# 2 Initial screening assays to identify hit compounds. (A) The compounds were screened at 30 μM in the YO-PRO 1 dye uptake using 1321 N1 cells stably transfected with hP2X7. Compound activity was evaluated along a time of 20 min (75 s per cycle) after ATP addition (700 μM). The fluorescence intensity (FI) values of the first 10 cycles were considered for assessing their ability to inhibit hP2X7. Compound responses were normalized to the fluorescent signal recorded on 0.3% DMSO cells treated with 700 μM ATP of each plate. […] (B) Compounds screened at 10 μM using MPR using 1321 N1 cells stably transfected with hP2X7. The compound activity was evaluated for 5 min after ATP addition (15 s per cycle). The fluorescence intensity recorded in the first cycles (before reaching a plateau response) was considered for assessing the small molecule’s ability to inhibit hP2X7. Compound responses were normalized to the fluorescence signal recorded on 0.1% DMSO cells treated with 700 μM ATP of each plate. […] One-way ANOVA and Dunnet test were used for statistical analysis (****P < 0.0001), (*P < 0.02). […]
# hP2X7 [5] = biological target: T1, hP2X7; experiment: YO-PRO 1 dye uptake assay, 1321 N1 cells stably transfected with hP2X7; details: compound 30 μM, 700 μM ATP; for reduction of P2X7 activation: 0.3% DMSO
# Protocol: as §1, §2
# The P2X7 receptor, besides being a ligand-gated ion channel, forms large membrane pores following prolonged exposure to high concentrations of ATP, leading to apoptosis (Mackenzie et al. 2005). The YO-PRO 1 dye uptake assay, which measures dye influx through these pores, was selected as the primary screen. The fluorescence of YO-PRO 1 increases when it binds to DNA, enabling real-time monitoring of P2X7 activation (calculated as the rate of increase in fluorescence as YO-PRO 1 binds nuclear DNA).
# The screening compounds were tested at 30 μM (0.3% DMSO) in 5 μM YO-PRO 1 dye diluted in freshly prepared ECS-LD buffer. Cells pretreated with the screening compounds were challenged with 700 μM ATP, and the fluorescence intensities were recorded. The negative control consisted of cells treated with 0.3% DMSO, while the positive control was 0.1 μM JNJ47965567, a selective P2X7 antagonist. ,
# 2 Initial screening assays to identify hit compounds. (A) The compounds were screened at 30 μM in the YO-PRO 1 dye uptake using 1321 N1 cells stably transfected with hP2X7. Compound activity was evaluated along a time of 20 min (75 s per cycle) after ATP addition (700 μM). The fluorescence intensity (FI) values of the first 10 cycles were considered for assessing their ability to inhibit hP2X7. Compound responses were normalized to the fluorescent signal recorded on 0.3% DMSO cells treated with 700 μM ATP of each plate. […] (B) Compounds screened at 10 μM using MPR using 1321 N1 cells stably transfected with hP2X7. The compound activity was evaluated for 5 min after ATP addition (15 s per cycle). The fluorescence intensity recorded in the first cycles (before reaching a plateau response) was considered for assessing the small molecule’s ability to inhibit hP2X7. Compound responses were normalized to the fluorescence signal recorded on 0.1% DMSO cells treated with 700 μM ATP of each plate. […] One-way ANOVA and Dunnet test were used for statistical analysis (****P < 0.0001), (*P < 0.02).
compound,measurement,setting,value
CC(C)NC(=O)NC(Cc1ccc2c(c1)OCO2)Cc1ccc2c(c1)OCO2 [Compound 2a],"hP2X7 inhibition in YO-PRO 1 dye uptake, SAR",hP2X7 [1],reduced antagonist effects
COc1ccc(CC(Cc2ccc3c(c2)OCO3)NC(=O)Nc2ccc(C)c(F)c2)cc1 (stereo not shown) [Compound 2b],"hP2X7 inhibition in YO-PRO 1 dye uptake, SAR",hP2X7 [1],diminished hP2X7 inhibition
O=C(Nc1ccc(F)cc1F)NC(Cc1ccc2c(c1)OCO2)Cc1ccc2c(c1)OCO2 [Compound 2c],reduction of hP2X7 activity,hP2X7 [1],80%
CNC(=O)NC(Cc1ccc(F)cc1)Cc1ccc2c(c1)OCO2 (stereo not shown) [Compound 2d],"hP2X7 inhibition in YO-PRO 1 dye uptake, SAR",hP2X7 [1],reduced antagonist effects
CCOC(=O)c1ccccc1NC(=O)NC(Cc1ccc(OC)cc1)Cc1ccc2c(c1)OCO2 (stereo not shown) [Compound 2e],"hP2X7 inhibition in YO-PRO 1 dye uptake, SAR",hP2X7 [1],diminished hP2X7 inhibition
O=C(NCCc1ccc2c(c1)OCO2)NCCN1CCN(c2ccccc2)CC1 [Compound 2f],"hP2X7 inhibition in YO-PRO 1 dye uptake, SAR",hP2X7 [1],reduced activity compared to 2
CCOc1ccc(NC(=O)NC(Cc2ccc(F)cc2)Cc2ccc3c(c2)OCO3)cc1 (stereo not shown) [Compound 2h],reduction of hP2X7 activity,hP2X7 [1],80%
COc1ccc(CCNC(=O)Nc2ccc3c(c2)OCO3)cc1OC [Compound 2j],"hP2X7 inhibition in YO-PRO 1 dye uptake, SAR",hP2X7 [1],reduced activity compared to 2
COc1ccc(CC(Cc2ccc3c(c2)OCO3)NC(=O)c2ccc(NC(C)=O)cc2)cc1 (stereo not shown) [Compound 2k],activity in MPR assay,hP2X7 [2],diminished activity relative to the other structural analogues
same,"hP2X7 inhibition in YO-PRO 1 dye uptake, SAR",hP2X7 [1],still reduced receptor activation
same,reduction of hP2X7 activity,hP2X7 [1],80%
O=C(NCc1ccc(Oc2ccc(F)cc2)cc1)c1ccccc1CN1C(=O)CNC1=O [Compound 4],"activity in MPR screen, hP2X7-induced membrane depolarization",hP2X7 [3],statistically inhibited
same,inhibition at 10 µM,hP2X7 [4],~90%
same,activity in YO-PRO 1 dye uptake screen,hP2X7 [5],no significant activity
COc1cccc(NC(=O)CSc2ccccc2C(=O)NCc2cn3ccccc3n2)c1 [Compound 6],"activity in MPR screen, hP2X7-induced membrane depolarization",hP2X7 [3],did not also block
same,activity in YO-PRO 1 dye uptake screen,hP2X7 [5],antagonist activity
same,reduction of P2X7 activation,hP2X7 [5],at least 50%
same,IC50,hP2X7 [1],20.9 µM
Cc1nn(-c2ccccc2)c(C)c1NC(=O)NCc1ccccc1Cn1cccn1 [Compound 7],"activity in MPR screen, hP2X7-induced membrane depolarization",hP2X7 [3],did not also block
same,activity in YO-PRO 1 dye uptake screen,hP2X7 [5],antagonist activity
same,reduction of P2X7 activation,hP2X7 [5],at least 50%
same,IC50,hP2X7 [1],4.23 µM
O=C(NCc1ccccc1)NC1(C(=O)NCc2ccccc2Cn2ccnc2)CCCC1 [Compound 8],"activity in MPR screen, hP2X7-induced membrane depolarization",hP2X7 [3],did not also block
same,activity in YO-PRO 1 dye uptake screen,hP2X7 [5],antagonist activity
same,reduction of P2X7 activation,hP2X7 [5],at least 50%
same,IC50,hP2X7 [1],4.07 µM
CN(C)C(=O)Cn1cc(NC(=O)c2cnc(-c3ccc4c(c3)OCO4)s2)cn1 [Compound 9a],"hP2X7 inhibition in YO-PRO 1 dye uptake, SAR",hP2X7 [1],reduced activity
O=C(COC(=O)c1cccnc1SCC(=O)Nc1ccc2c(c1)OCO2)NCc1ccco1 [Compound 9c],"hP2X7 inhibition in YO-PRO 1 dye uptake, SAR",hP2X7 [1],compromised activity
O=C(CSc1ncccc1C(=O)Nc1ccc(-n2cnnn2)cc1)Nc1ccc2c(c1)OCO2 [Compound 9d],"hP2X7 inhibition in YO-PRO 1 dye uptake, SAR",hP2X7 [1],activity comparable to that of 9
O=C(CSc1ncccc1C(=O)N1CCN(c2ccccc2F)CC1)Nc1ccc2c(c1)OCO2 [Compound 9e],"hP2X7 inhibition in YO-PRO 1 dye uptake, SAR",hP2X7 [1],activity comparable to that of 9; also recorded: enhanced target inhibition
CN(C)S(=O)(=O)c1cccc(COC(=O)c2cccnc2SCC(=O)Nc2ccc3c(c2)OCO3)c1 [Compound 9h],"hP2X7 inhibition in YO-PRO 1 dye uptake, SAR",hP2X7 [1],activity comparable to that of 9; also recorded: enhanced target inhibition
